{
  "source": "patent US5814612A",
  "about": "“Retinol derivatives and uses thereof” (priority 1992, dated 1998)",
  "key": {"EL-4": {"system": "EL-4", "test": "Retinol metabolism, EL-4", "type": "in vitro ADME, mouse", "method": "Legend: 2.5×10^6 cells were grown overnight in 5 ml RPMI/10% FBS. The FBS was preincubated at room temperature with 14.4 uCi [^3 H] retinol (NEN) for 4h. The cell pellet was washed twice with PBS. The retinoid were extracted according to MClean et al. 90 and separated on an analytical c18 reverse phase column according to FIG. 7. The DPM were determined using an on-line scintillation counter."}, "5/2 cells": {"system": "5/2 cells", "type": "in vitro ADME, human", "method": "5/2 cells (10^6 cells in 10 ml HB 101 medium) were incubated with all-trans-[^3 H] retinol (10 uCe/ml). After 24 hours, retinoids were extracted from the washed cell pellet and unlabeled marker retinoids were added. The crude extract was loaded on an analytical reversed-phase C-18 column. Retinoids were eluted with the shown linear gradient of water/methanol/chloroform. The flow rate was 0.5 ml/min. DPM were determined with an on line scintillation counter. Reference retinoids were the all-trans forms of 0: 3,4-didehydroretinoic acid, 1: all-trans-retinoic acid, 2: 3,4-didehydroretinol, 3: retinol, 4: retinyl linoleate, 5: retinyl oleate, 6: retinyl palmitate. Shaded area corresponds to P3. Cross-hatched area corresponds to P1.\nLymphoblastoid 5/2 cells grown in the presence of 10^-6 M retinol were spiked with ^3 H-labeled retinol. After 16 hours the cell pellet was delipidated according to the method of McLean et al. and separated on a reversed phase C-18 HPLC column (FIG. 7). […] Three peaks, P1, P2 and P3, could not be immediately identified. One peak eluting at 36-39 minutes (corresponding 83% methanol 7% water) provisionally called P3, but now known as 14HRR, was unusual because unlike P1 eluting at 31-34 minutes, its relative amount increased when the retinol concentration was lowered or when retinol was given to the cells bound to RBP. […] Since HeLa cells contain 14HRR, these cells were also used. 50 ml of packed HeLa cells (10^10 cells) yielded 25 OD348nmunits of pure P3 after the following sequence of steps: 1. Growth in the presence of 10^-5 M retinol; 2. Extraction of cell pellet according to McClean et al. (13); 3. Preparative C-18 HPLC column eluted with a water/methanol gradient; 4. semipreparative C18 HPLC column eluted with a water/acetonitrile gradient; 5. analytical C4 column eluted with a water/methanol gradient."}, "CD8^+ T lymphocytes": {"system": "CD8^+ T lymphocytes", "test": "Proliferation of anti-CD3 plus IL-2 activated CD8+ T lymphocytes", "type": "cell-based, BALB/c mouse", "source_text": "Growth curves of lymph node T cells depleted of antigen-presenting cells (FIG. 17A) with and without 10^-6 M retinol at 2×10^5 and 5×10^4 cells/well. (FIG. 17B) Dose-responses elicited by different retinoids in cultures of lymph node T cells depleted of antigen-presenting cells. Also shown are the growth curves of CD4^+ (FIG. 17C) and CD8^+ T lymphocytes (FIG. 17D) in the presence of either retinol, 14HRR, human serum or in their absence.\nT lymphocytes, purified as described, 5×10^4 /well, were activated with immobilized anti-CD3 antibody in ITLB medium. The indicated amounts of retinoids or human serum were added at initiation of cultures. […] 14HRR was added every 12 hours. DNA synthesis was measured by a 4 hour pulse with tritiated thymidine. SDs were ≤17%.\nMature T cells were obtained from pooled intestinal, axillary, inguinal and submandibular lymph nodes of 4 to 10-week-old BALB/c mice. To fractionate cells into CD4 and CD8 subsets and at the same time remove APC, a combination of adherence and complement lysis was used as follows:\nThe cell suspension in a volume of 2 ml was applied to a nylon wool column (40) (0.6 g of washed nylon fibers in the barrel of a 10 ml syringe) and incubated at 37° C. for 40 min. […] The success of the enrichment procedures was monitored cytofluorimetrically using FITC-conjugated anti-CD8 and PE-conjugated anti-CD4. […]"}},
  "data": [
    {"smiles": "CC1=C(/C=C/C(C)=C/C=C/C(C)=C/CO)C(C)(C)CCC1", "note": "[retinol, all-trans retinol]", "values": [
      {"measurement": "Ester (% of taken up retinol)", "setting": "EL-4", "result": 44, "unit": "%"},
      {"measurement": "P3 (% of taken up retinol)", "setting": "EL-4", "result": 5, "unit": "%"},
      {"measurement": "Total cts.", "setting": "EL-4", "result": "2.8 × 10^5 cts."}
    ]},
    {"smiles": "CC1=C(/C=C/C(C)=C/C=C/C(C)=C/C(=O)O)C(C)(C)CCC1", "note": "[all-trans retinoic acid]", "values": [
      {"measurement": "detection as metabolite of retinol", "setting": "5/2 cells", "result": "not detectable"}
    ]},
    {"smiles": "CC(C=CC=C(C)C(O)CO)=CC=C1C(C)=CCCC1(C)C", "note": "(centres unmarked) [14HRR, 14-hydroxy-4,14-retro-retinol]", "values": [
      {"measurement": "response of CD8+ subset to anti-CD3 plus IL-2", "setting": "CD8^+ T lymphocytes", "result": "responded to the activating signal"}
    ]}
  ]
}
